Source: article PMC10689700, “Kaemtakols A–D, highly oxidized pimarane diterpenoids with potent anti-inflammatory activity from Kaempferia takensis” (Natural Products and Bioprospecting, 2023)

Legend:
[1] = test system: NO production in RAW 264.7 macrophage cells; assay: Inhibition of LPS-induced NO production in RAW 264.7 macrophage cells (Griess reaction); type: cell-based, murine; conditions: Mus musculus; for EC50: RAW264.7 cells, LPS 0.25 μg/mL, 24 h, read-out: EC50, Nitric oxide (LPS-induced NO production); for IC50: RAW264.7, LPS-triggered RAW 264.7 macrophage cells, read-out: IC50 of inhibiting nitric oxide production
Method: (§1) Inhibition of NO production in LPS-activated murine macrophages (RAW 264.7 cells) The inhibitory assay followed the methods described previously with some modifications. RAW 264.7 cells were seeded at 3 × 10^4 cells/well in a 96-well flat bottom plate and cultured in DMEM high glucose supplemented with 10% FBS, 1% penicillin–streptomycin, and 1% HEPES. The plates were initially incubated at 37 °C for 24 h under 5% CO2 atmosphere. Thereafter, LPS (0.25 μg/mL) in the absence or presence of different concentrations of kaemtakols (100, 10, 1, 0.1, 0.01, and 0.001 μg/mL) were introduced into the culture plate and then incubated further for 24 h under the same condition. Aminoguanidine hydrochloride (iNOS inhibitor) was also added as a positive control. The nitrite accumulation in the media was determined by the Griess reaction. The 75 μL of each culture supernatant was mixed with an equivalent amount of Griess reagent and the resulting mixture was incubated at room temperature for additional 10 min. Then, the absorbance at 546 nm was measured using a multimode microplate reader (ENVISION). The cytotoxicity of kaemtakols against RAW 264.7 was determined by a standard MTT assay.

NF-κB in HaCaT cells = assay: Inhibition of cytokine-induced NF-κB nuclear translocation in HaCaT human skin cells (high-content imaging); type: cell-based; conditions: cytokine cocktail TNF-α, IL-1β, IL-6, read-out: EC50, HaCaT cell (NF-κB production by cytokine induced inflammation)
Method: Assessment of inhibitory effects on NF-κB nuclear translocation in human skin HaCaT cells
The assay followed the methods described previously with some modifications. Human skin cells (HaCaT cells) were seeded at 5 × 10^4 cells/well in a 96-well black flat-bottom plate, using DMEM (Dulbecco’s Modified Eagle Medium) high glucose supplemented with 10% FBS and 1% penicillin–streptomycin. The plates were then incubated at 37 °C for 24 h under 5% CO2 atmosphere. Following the initial incubation, a range of concentrations (100, 50, 25, 12.5, 6.25, 3.125 μM) of kaemtakols were introduced to the cells, and a subsequent 1-h incubation at 37 °C with 5% CO2 was carried out. Afterward, a cytokine cocktail comprising TNF-α (10 ng/mL), IL-1β (10 ng/mL), and IL-6 (10 ng/mL), along with the same concentration range of kaemtakols, was introduced to the culture plates and incubated at 37 °C with 5% CO2 for additional 30 min. Thereafter, the treated cells were fixed with 100% methanol at -20 °C for 10 min. The fixed cells underwent triple washes with DPBS before being exposed to a blocking solution (3% BSA) at room temperature for 60 min. Subsequently, a primary antibody (anti-NF-κB), a Rabbit monoclonal antibody, was introduced into the culture plate at a 1:500 ratio in DPBS and incubated at 4 °C overnight. Afterward, the culture plate was washed with DPBS three times. A secondary antibody (Alexa Fluor 488-conjugated goat anti-rabbit IgG) at a 1:500 ratio in DPBS was added to the culture plate and incubated for 1 h at room temperature in the dark. Simultaneously, Hoechst (at a 1:1,000 ratio in DPBS) was also added to the culture plate. The translocation of NF-κB in cells treated with the cytokine cocktail and kaemtakols was subsequently detected using a high-content imaging system (Operetta). The cell viability was determined by Hoechst DNA staining (Operetta).

[2] = Cytotoxicity against RAW 264.7 cells (MTT assay); type: cell-based, murine; conditions: mouse; for viability at 24 h, 10 µM: at 10 μM, read-out: % Cell viability At 10 μM; for viability at 24 h, 100 µM: at 100 μM, read-out: % Cell viability At 100 μM
Method: as §1, with “The” for “Inhibition of NO production in LPS-activated murine macrophages (RAW 264.7 cells) The”

SMILES	EC50 [1] [µM]	EC50 (NF-κB in HaCaT cells) [µM]	viability at 24 h, 10 µM [2] [%]	viability at 24 h, 100 µM [2] [%]	IC50 [1] [µM]
CC(=O)OC1CCC(C)(C)C(C=O)C12COC(=O)C1=C2C2CC3C1C3(C)C2 (stereo not drawn) [Compound 4, 1α-acetoxy-13β-methyl-6,7-seco-7,20-olide-8,9-tricyclo[3.2.1.0^2,7]octane-isopimara-8-en-6-al]	18.8	> 100	89.7	1.55	
C=C[C@]1(C)C=C2[C@](O)(CC1)[C@]13CO[C@@]2(O)[C@@H](OC(C)=O)[C@H]1C(C)(C)CC[C@@H]3O [Compound 2, 1α,7α,9α-trihydroxy-6β-acetoxy-7β,20-epoxyisopimara-8(14),15-diene]	0.69	> 100	83	20.8	0.69
C=CC1(C)C=C2C3(O)OCC4(C(OC(C)=O)CCC(C)(C)C4C3OC(C)=O)C2(O)CC1 (stereo not drawn) [Compound 1, 7α,9α-dihydroxy-1α,6β-diacetoxy-7β,20-epoxyisopimara-8(14),15-diene]	104	> 100	95.7	68.5	104
C=C[C@]1(C)C=C2[C@@H](OC(C)=O)[C@@]3(O)OC[C@]4([C@@H]3C(C)(C)CC[C@@H]4O)[C@@]2(O)CC1 [Compound 3, 1α,6α,9α-trihydroxy-7β-acetoxy-6β,20-epoxyisopimara-8(14),15-diene]	29.9	> 100	92.5	97.2	
